# Measurements as given in patent US6348445B1, “Biologically active peptides with reduced toxicity in animals and a method for preparing same” (priority 1992, dated 2002).
# Where two headings read alike, the source gives them in different places. Where a SMILES comes first, the peptide text is derived from it. Where no end group is shown, it is not given here. The star is where a group is joined. Octanoyl = CCCCCCCC(=O)*
# Legend:
# [1] = system: E. coli ATCC strain 25922; test: Minimal Inhibitory Concentration, microtiter broth dilution; type: cell-based; conditions: for MIC E. coli ATCC 25922: ATCC strain 25922; for Minimal Inhibitory Concentration E: E. coli ATCC strain 25922, Table I
# Method in brief: (§1)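 Peptides serially diluted 1:2 to final 0.25–256 μg/ml in Mueller Hinton broth, inoculated with 1-5×10^5 CFUs/ml from mid-log culture. Incubated 16-20 hours at 37° C. MIC = lowest peptide concentration giving a clear well.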
# [2] = system: P. aeruginosa strain ATCC 27853; type: cell-based
# Method in brief: as §1
# [3] = system: S. aureus ATCC 29213; type: cell-based; conditions: ATCC 29213
# [4] = system: S.aureus strain ATCC 25923; test: Minimal Inhibitory Concentration, microtiter broth dilution; type: cell-based; conditions: Mueller Hinton broth, 16-20 hours at 37° C.
# Excerpt: Table I, which follows, indicates the Minimal Inhibitory Concentration (MIC) in […] of various peptides against S.aureus strain ATCC 25923(S), P. aeruginosa strain ATCC 27853(P), E. coli ATCC strain 25922(E), and C. 4albicans (CA). […] The peptides are unsubstituted at the N-terminal; substituted with an acetyl group at the N-terminal, as indicated by Ac-; substituted with an octanoyl group at the N-terminal, as indicated by Oct-; substituted with spinogosine, as indicated by Sph-; substituted with a succinyl group, as indicated by Suc-; substituted with a hexanoyl group, as indicated by Hex-; substituted with a heptanoyl group, as indicated by Hep-; substituted with a valeryl group, as indicated by Val-; substituted with a myristryl group, as indicated by Myr-; or substituted with an ibuprofyl group, as indicated by Ibu-;
# The procedure for the anti-bacterial assay is based upon the guidelines of the National Committee for Clinical Laboratory Standards, Document M7-T2, Volume 8, No. 8, 1988, which document is entirely incorporated herein by reference.
# Stock solutions of peptides, with and without the appropriate substitutions, were prepared at a concentration of 512 μg/ml in sterile deionized distilled water and stored at −70° C.
# The stock peptide solution was diluted in serial dilutions (1:2) down the wells of a microtiter plate so that the final concentrations of peptides in the wells were 0.25, 0.50, 1, 2, 4, 8, 16, 32, 64, 128 and 256 μg/ml. 1-5×10^5 CFUs/ml of either S. aureus ATCC 25923, E. coli ATCC 25922, P. aeruginosa ATCC 27853, or C. albicans, were added to the wells in full strength Mueller Hinton broth (BBL 11443) from a mid-log culture. The inoculum was standardized spectrophotometrically at 600 nm and was verified by colony counts. The plates were incubated for 16-20 hours at 37° C., and the minimal inhibitory concentration (MIC) for each peptide was determined. Minimal inhibitory concentration is defined as the lowest concentration of peptide which produces a clear well in the microtiter plate. The minimal inhibitory concentration of each of the peptides with and/or without the appropriate substitutions is given in Table I below.
# [5] = system: A. viscosus; test: anaerobic anti-microbial susceptibility test (MIC); type: cell-based; conditions: 24-48 hours
# [6] = system: S. mutans; test: anaerobic anti-microbial susceptibility test (MIC); type: cell-based; set-up: unit not given here; conditions: 24-48 hours
# [7] = system: P. gingivalis; conditions: anaerobic, 24-48 hours
# [8] = system: C. albicans; type: cell-based
# Method in brief: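 Peptides serially diluted 1:2 to final 0.25–256 μg/ml; inoculum 1-5×10^5 CFU/ml from mid-log culture in full-strength Mueller Hinton broth. Incubated 16-20 h at 37° C. MIC taken as lowest peptide concentration giving a clear well.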
# [9] = MTD of repeat-dose intraperitoneal administration; type: in vivo, SCID mice; conditions: 135 mg/kg/week, three injections per week i.p.
# Method: Determinations of a maximal tolerated dose (MTD) of repeat-dose intraperitoneal (i.p.) administration of MSI-344 or MSI-1857 in 60 SCID mice were done. Mice were injected with various doses of MSI-344 or MSI-1857 twice or thrice per week. Survival and body weight were monitored. On a twice per week dosing schedule, the MTDs of MSI-344 and MSI-1857 were 12 and 134 mg/kg/week, respectively. […] On a thrice per week dosing schedule, no deaths occurred in any groups, with high dose groups of MSI-344 and MSI-1857 receiving 90 mg/kg/week and […], respectively. A transient body weight loss was seen after initial dosing in most MSI-344 and MSI-1857 groups. No body weight loss greater than 6% occurred in any group on the thrice per week dosing schedule.
# To determine estimates of MTDs of MSI-344 and MSI-1857 when administered intraperitoneally on repeat-dose regimens in SCID mice. The selection of SCID mice was based on the future plans of using this strain as host for xenograft human tumor efficacy models, and a pre-requisite for determining MTD for chronic administration that may be used during the efficacy model.
# SCID mice are immunocompromised and therefore they were housed and handled in sterile environments. They had access to sterile water and sterilized chow ad lib.
# A 1 mg/mL solution of MSI-344 was made in saline (0.9% sodium chloride injection USP, Abbott, North Chicago, Ill.) corrected for peptide content. Solutions of MSI-344 at concentrations of 0.6, 0.3, and 0.1 mg/mL were made by diluting the 1 mg/mL solution using saline as diluent. A 10 mg/mL solution of MSI-1857 was made in saline.
# Solutions of MSI-1857 at concentrations of 6.7, 3.3, 3, 2, and 1 mg/mL were made by diluting the 10 mg/mL solution using saline as diluent.
# Mice (four mice per dose group) were intraperitoneally administered MSI-344 or MSI-1857 using an injection volume of 10 mL/kg of the appropriate solution concentration on a twice per week (Groups 1 through 7) or thrice per week (Groups 8 through 15) dosing schedule every week for 20 weeks. Survival was monitored daily and body weights were recorded three times per week An interim analysis was performed at 3 weeks and the results of this interim analysis is presented in the present report.
# [10] = P. aeruginosa strain ATCC 27853, Table I
compound,measurement,setting,value
CC[C@H](C)[C@H](NC(=O)CNCS(=O)(=O)O)C(=O)NCC(=O)N[C@@H](CCCCNCS(=O)(=O)O)C(=O)N[C@@H](Cc1ccccc1)C(=O)N[C@@H](CC(C)C)C(=O)N[C@@H](CCCCNCS(=O)(=O)O)C(=O)N[C@@H](CCCCNCS(=O)(=O)O)C(=O)N[C@@H](C)C(=O)N[C@@H](CCCCNCS(=O)(=O)O)C(=O)N[C@@H](CCCCNCS(=O)(=O)O)C(=O)N[C@@H](Cc1ccccc1)C(=O)NCC(=O)N[C@@H](CCCCNCS(=O)(=O)O)C(=O)N[C@@H](C)C(=O)N[C@@H](Cc1ccccc1)C(=O)N[C@H](C(=O)N[C@@H](CCCCNCS(=O)(=O)O)C(=O)N[C@H](C(=O)N[C@@H](CCSC)C(=O)N[C@@H](CCCCNCS(=O)(=O)O)C(=O)N[C@@H](CCCCNCS(=O)(=O)O)C(N)=O)[C@@H](C)CC)C(C)C,MIC E. coli ATCC 25922,[1],128 µg/mL
same,MIC P. aeruginosa ATCC 27853,[2]; ATCC 27853,64 µg/mL
same,MIC S. aureus ATCC 29213,[3],64 µg/mL
CCCCCCCC(=O)N[C@@H](CCCCN)C(=O)N[C@H](C(=O)N[C@@H](C)C(=O)N[C@@H](CCCCN)C(=O)N[C@@H](CCCCN)C(=O)N[C@H](C(=O)N[C@@H](C)C(=O)N[C@@H](CCCCN)C(=O)N[C@H](C(=O)N[C@@H](C)C(=O)N[C@@H](CCCCN)C(=O)N[C@@H](CCCCN)C(=O)N[C@H](C(=O)N[C@@H](C)C(=O)N[C@@H](CCCCN)C(=O)N[C@H](C(=O)N[C@@H](C)C(=O)N[C@@H](CCCCN)C(=O)N[C@@H](CCCCN)C(=O)N[C@H](C(=O)N[C@@H](C)C(=O)O)[C@@H](C)CC)[C@@H](C)CC)[C@@H](C)CC)[C@@H](C)CC)[C@@H](C)CC)[C@@H](C)CC [Oct-(SEQ ID NO: 86)-OH] (Octanoyl-KIAKKIAKIAKKIAKIAKKIA-OH),Minimal Inhibitory Concentration E,[1],2 µg/mL
same,Minimal Inhibitory Concentration S,[4],8 µg/mL
same,Minimal Inhibitory Concentration P,[2]; [10],4 µg/mL
same,MIC A. viscos,[5],32 μl/ml
same,MIC S. mutans,[6],16
same,MIC P. gingivalis (strain) 9-14K-1,[7],1 μl/ml
same,MIC P. gingivalis (strain) 381,[7],1 μl/ml
same,MIC P. gingivalis (strain) 450,[7],1 μl/ml
same,MIC P. gingivalis (strain) A7A1-28,[7],1 μl/ml
same,MIC P. gingivalis (strain) FAY-19M-1,[7],1 μl/ml
same,Minimal Inhibitory Concentration CA,"[8]; C. albicans, Table I",128 µg/mL
CCCCCCCC(=O)N[C@@H](CCCCN)C(=O)N[C@@H](CCCCN)C(=O)N[C@@H](CC(C)C)C(=O)N[C@@H](C)C(=O)N[C@@H](CCCCN)C(=O)N[C@@H](CC(C)C)C(=O)N[C@@H](C)C(=O)N[C@@H](CCCCN)C(=O)N[C@@H](CCCCN)C(=O)N[C@@H](CC(C)C)C(=O)N[C@@H](C)C(N)=O [Oct-(SEQ ID NO: 123)-NH2] (Octanoyl-KKLAKLAKKLA-NH2),Minimal Inhibitory Concentration E,[1],32 µg/mL
same,Minimal Inhibitory Concentration S,[4],32 µg/mL
same,Minimal Inhibitory Concentration P,[2]; [10],16 µg/mL
same,Minimal Inhibitory Concentration CA,"[8]; C. albicans, Table I",32 µg/mL
CCCCCCCC(=O)N[C@@H](CCCCN)C(=O)N[C@@H](CC(C)C)C(=O)N[C@@H](C)C(=O)N[C@@H](CCCCN)C(=O)N[C@@H](CC(C)C)C(=O)N[C@@H](C)C(=O)N[C@@H](CCCCN)C(=O)N[C@@H](CCCCN)C(=O)N[C@@H](CC(C)C)C(=O)N[C@@H](C)C(N)=O [Oct-(SEQ ID NO: 124)-NH2] (Octanoyl-KLAKLAKKLA-NH2),Minimal Inhibitory Concentration E,[1],256 µg/mL
same,Minimal Inhibitory Concentration S,[4],128 µg/mL
same,Minimal Inhibitory Concentration P,[2]; [10],64 µg/mL
same,Minimal Inhibitory Concentration CA,"[8]; C. albicans, Table I",128 µg/mL
CCCCCCCC(=O)N[C@@H](CCCCN)C(=O)N[C@@H](Cc1c[nH]c2ccccc12)C(=O)N[C@@H](CCCCN)C(=O)N[C@@H](CC(C)C)C(=O)N[C@@H](Cc1ccccc1)C(=O)N[C@@H](CCCCN)C(=O)N[C@@H](CCCCN)C(=O)N[C@H](C(=O)N[C@@H](CCC(=O)O)C(=O)N[C@@H](CCCCN)C(=O)N[C@H](C(N)=O)C(C)C)[C@@H](C)CC [Oct-(SEQ ID NO: 136)-NH2] (Octanoyl-KWKLFKKIEKV-NH2),Minimal Inhibitory Concentration E,[1],256 µg/mL
same,Minimal Inhibitory Concentration S,[4],256 µg/mL
same,Minimal Inhibitory Concentration P,[2]; ATCC 27853,64 µg/mL
same,Minimal Inhibitory Concentration CA,[8],256 µg/mL
CCCCCCCC(=O)N[C@@H](CCCCN)C(=O)N[C@H](C(=O)N[C@@H](C)C(=O)N[C@@H](CCCCN)C(=O)N[C@@H](CCCCN)C(=O)N[C@H](C(=O)N[C@@H](C)C(=O)N[C@@H](CCCCN)C(=O)N[C@H](C(=O)N[C@@H](C)C(=O)N[C@@H](CCCCN)C(=O)N[C@@H](CCCCN)C(=O)N[C@H](C(=O)N[C@@H](C)C(N)=O)[C@@H](C)CC)[C@@H](C)CC)[C@@H](C)CC)[C@@H](C)CC [Oct-(SEQ ID NO: 153)-NH2] (Octanoyl-KIAKKIAKIAKKIA-NH2),Minimal Inhibitory Concentration E,[1],32 µg/mL
same,Minimal Inhibitory Concentration S,[4],8 µg/mL
same,Minimal Inhibitory Concentration P,[2]; [10],8 µg/mL
same,Minimal Inhibitory Concentration CA,"[8]; C. albicans, Table I",64 µg/mL
"O=S([O-])S(=O)(=O)[O-].[Na+].[Na+] [Sodium metabisulfite, reference compound]",lethality,[9],no lethality
GIGKFLKKAKKFGKAFVKIMKK-NH2 [SEQ ID NO: 155-NH2],MIC E. coli ATCC 25922,[1],16 µg/mL
same,MIC P. aeruginosa ATCC 27853,[2]; ATCC 27853,32 µg/mL
same,MIC S. aureus ATCC 29213,[3],16 µg/mL
"H-KIAKKIAKIAKKIAKIAKKIA-OH [(SEQ ID NO: 86)-OH, (Lys Ile Ala Lys Lys Ile Ala)3]",Minimal Inhibitory Concentration E,[1],2 µg/mL
same,Minimal Inhibitory Concentration S,[4],128 µg/mL
same,Minimal Inhibitory Concentration P,[2]; [10],32 µg/mL
same,MIC A. viscos,[5],32 μl/ml
same,MIC S. mutans,[6],16
same,MIC P. gingivalis (strain) 9-14K-1,[7],16 μl/ml
same,MIC P. gingivalis (strain) 381,[7],16 μl/ml
same,MIC P. gingivalis (strain) 450,[7],4 μl/ml
same,MIC P. gingivalis (strain) A7A1-28,[7],4 μl/ml
same,MIC P. gingivalis (strain) FAY-19M-1,[7],8 μl/ml
same,Minimal Inhibitory Concentration CA,"[8]; C. albicans, Table I",256 µg/mL
